Test results from article PMC5935545 (Molecular cell, 2018).

Legend:
[1] = target: EZH2 (PRC2) (Homo sapiens, UniProt Q15910); format: biochemical
[2] = target: EZH2 Y646N (PRC2/EZH2^Y646N) (Homo sapiens, UniProt Q15910, Y641N); format: biochemical
EZH2 Y646N (PRC2/EZH2^Y646N), sequence (Q15910 whole entry Y641N): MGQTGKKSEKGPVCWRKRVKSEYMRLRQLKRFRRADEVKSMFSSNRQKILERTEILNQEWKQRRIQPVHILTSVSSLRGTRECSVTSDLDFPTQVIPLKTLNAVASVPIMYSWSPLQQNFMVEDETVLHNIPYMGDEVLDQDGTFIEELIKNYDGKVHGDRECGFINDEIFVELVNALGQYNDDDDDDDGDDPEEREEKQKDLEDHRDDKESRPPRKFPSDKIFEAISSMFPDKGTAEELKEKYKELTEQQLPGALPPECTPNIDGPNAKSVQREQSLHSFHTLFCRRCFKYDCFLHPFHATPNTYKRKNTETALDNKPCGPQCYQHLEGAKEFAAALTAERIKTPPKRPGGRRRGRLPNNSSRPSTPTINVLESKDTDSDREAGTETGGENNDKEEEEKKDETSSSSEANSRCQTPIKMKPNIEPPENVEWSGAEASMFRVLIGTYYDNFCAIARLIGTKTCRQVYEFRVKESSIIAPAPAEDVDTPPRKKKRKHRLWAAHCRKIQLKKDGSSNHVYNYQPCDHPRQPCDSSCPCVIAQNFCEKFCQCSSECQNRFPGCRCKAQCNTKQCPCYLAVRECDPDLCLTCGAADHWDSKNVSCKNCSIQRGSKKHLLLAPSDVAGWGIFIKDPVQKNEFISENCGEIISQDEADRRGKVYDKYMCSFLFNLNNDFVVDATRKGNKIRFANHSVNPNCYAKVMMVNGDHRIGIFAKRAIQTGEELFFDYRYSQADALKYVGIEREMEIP
EZH2 Y646N (PRC2/EZH2^Y646N), sequence (O75530 2-441 partner): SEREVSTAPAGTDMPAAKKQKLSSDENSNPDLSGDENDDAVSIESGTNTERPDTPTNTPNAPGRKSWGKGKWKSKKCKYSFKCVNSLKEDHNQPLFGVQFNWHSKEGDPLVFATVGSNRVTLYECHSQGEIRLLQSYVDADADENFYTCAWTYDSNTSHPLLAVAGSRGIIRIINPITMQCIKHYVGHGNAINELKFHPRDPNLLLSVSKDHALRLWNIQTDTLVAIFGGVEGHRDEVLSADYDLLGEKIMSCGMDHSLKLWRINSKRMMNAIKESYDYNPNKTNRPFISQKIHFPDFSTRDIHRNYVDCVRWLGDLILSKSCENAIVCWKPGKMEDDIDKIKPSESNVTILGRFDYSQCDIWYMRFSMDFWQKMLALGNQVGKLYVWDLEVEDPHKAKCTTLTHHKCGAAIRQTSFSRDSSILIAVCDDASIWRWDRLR
EZH2 Y646N (PRC2/EZH2^Y646N), sequence (Q15022 whole entry partner): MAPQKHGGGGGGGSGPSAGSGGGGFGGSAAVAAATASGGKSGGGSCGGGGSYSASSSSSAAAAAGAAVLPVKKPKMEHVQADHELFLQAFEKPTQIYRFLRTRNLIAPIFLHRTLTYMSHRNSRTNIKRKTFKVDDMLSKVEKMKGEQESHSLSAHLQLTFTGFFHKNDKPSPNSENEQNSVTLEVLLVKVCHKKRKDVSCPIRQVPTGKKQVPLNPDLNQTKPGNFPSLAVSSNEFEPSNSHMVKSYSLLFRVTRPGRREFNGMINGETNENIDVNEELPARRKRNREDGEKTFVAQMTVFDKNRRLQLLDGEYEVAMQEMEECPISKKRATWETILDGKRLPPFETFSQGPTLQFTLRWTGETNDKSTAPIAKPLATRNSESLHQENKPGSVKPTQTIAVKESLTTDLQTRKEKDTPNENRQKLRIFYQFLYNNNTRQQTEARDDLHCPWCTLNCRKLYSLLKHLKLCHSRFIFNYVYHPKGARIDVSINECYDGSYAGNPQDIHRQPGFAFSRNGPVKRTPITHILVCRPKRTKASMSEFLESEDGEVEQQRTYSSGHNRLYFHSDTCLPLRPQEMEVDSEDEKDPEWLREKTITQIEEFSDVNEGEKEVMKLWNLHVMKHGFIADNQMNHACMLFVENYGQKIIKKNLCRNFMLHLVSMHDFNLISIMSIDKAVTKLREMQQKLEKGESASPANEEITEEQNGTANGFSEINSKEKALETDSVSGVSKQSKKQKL
EZH2 Y646N (PRC2/EZH2^Y646N), sequence (Q09028 2-425 partner): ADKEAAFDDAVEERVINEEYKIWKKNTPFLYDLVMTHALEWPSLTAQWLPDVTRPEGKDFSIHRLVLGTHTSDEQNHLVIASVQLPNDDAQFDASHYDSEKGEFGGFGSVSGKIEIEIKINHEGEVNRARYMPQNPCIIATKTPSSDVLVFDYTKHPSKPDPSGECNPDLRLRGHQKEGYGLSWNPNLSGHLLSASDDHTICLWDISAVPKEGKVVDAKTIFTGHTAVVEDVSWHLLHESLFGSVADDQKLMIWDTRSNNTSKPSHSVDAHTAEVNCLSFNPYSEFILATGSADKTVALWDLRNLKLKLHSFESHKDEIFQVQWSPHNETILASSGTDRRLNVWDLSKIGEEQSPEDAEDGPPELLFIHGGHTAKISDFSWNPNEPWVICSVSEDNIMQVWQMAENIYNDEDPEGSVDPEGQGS

EZH2 (PRC2), sequence (Q15910 whole entry): as the sequence (Q15910 whole entry Y641N) above, with N641Y counted along it
EZH2 (PRC2), sequence (O75530 2-441 partner): as the sequence (O75530 2-441 partner) above
EZH2 (PRC2), sequence (Q15022 whole entry partner): as the sequence (Q15022 whole entry partner) above
EZH2 (PRC2), sequence (Q09028 2-425 partner): as the sequence (Q09028 2-425 partner) above

COC(=O)c1ccc(NC(=O)c2ccc(NC(=O)c3ccc([N+](=O)[O-])c(OCc4ccccc4)n3)c(OCc3ccccc3)n2)c(OCCCN)n1 [ADH-61]
IC50 [1]: 766 ± 710 nM | IC50 [2]: 891 ± 96 nM
